In article PMC9090415, “Discovery of small molecule inhibitors of Plasmodium falciparum apicoplast DNA polymerase” (Journal of Enzyme Inhibition and Medicinal Chemistry, 2022):

Biological target: P. falciparum apicoplast DNA polymerase (Pf-apPOL) (Plasmodium falciparum, UniProt Q8ILY1)
Assay: Fluorescence-based high-throughput DNA polymerase assay (molecular beacon), primary screen and dose-response;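 for % inhibition ApPOL 90': test concentration in µM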;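 for % inhibition Apol 40': compound concentration given in µM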;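 for % inhibition apPOL 180': test concentration in µM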
Assay type: biochemical
Settings: for DNA Pol: 90 min, 10 µM
Procedure, shortened: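 Single-point screening used 10 µM compound with 20 nM polymerase, 20 nM hairpin substrate and 6 µM dNTPs for 90 min at 25 °C. Confirmatory titrations (2.5–80 µM) followed fluorescence at three times, and IC50 was derived from a fit including a cooperativity term n.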

Sequence of P. falciparum apicoplast DNA polymerase (Pf-apPOL) (Q8ILY1 entry or part of it): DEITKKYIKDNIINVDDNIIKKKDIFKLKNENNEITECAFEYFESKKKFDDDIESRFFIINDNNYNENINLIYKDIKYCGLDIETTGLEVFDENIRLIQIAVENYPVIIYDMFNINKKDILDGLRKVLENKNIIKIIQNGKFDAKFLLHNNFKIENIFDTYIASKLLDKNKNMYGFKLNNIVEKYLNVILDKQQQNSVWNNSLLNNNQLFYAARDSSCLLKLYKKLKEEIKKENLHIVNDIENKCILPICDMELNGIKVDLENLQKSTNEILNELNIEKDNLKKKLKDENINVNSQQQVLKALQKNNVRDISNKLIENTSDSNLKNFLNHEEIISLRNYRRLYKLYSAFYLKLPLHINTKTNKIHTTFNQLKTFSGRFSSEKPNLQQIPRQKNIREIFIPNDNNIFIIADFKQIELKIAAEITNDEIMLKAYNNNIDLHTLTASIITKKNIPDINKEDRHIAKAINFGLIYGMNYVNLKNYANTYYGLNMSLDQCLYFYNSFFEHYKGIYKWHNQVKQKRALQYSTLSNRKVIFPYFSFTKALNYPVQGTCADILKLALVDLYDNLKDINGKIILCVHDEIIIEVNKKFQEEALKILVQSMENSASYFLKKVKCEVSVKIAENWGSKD

Cc1ccc(CNC(=O)c2cnn3c(O)cc(CSc4ccc(Cl)cc4)nc23)cc1 [Molecule 99, Cc1ccc(cc1)CNC(=O)c1cnn2c1nc(CSc1ccc(cc1)Cl)cc2O]
DNA Pol ('DNA Pol' of the 186 hits list (screen value)): 67 | % inhibition Apo pol 10' (DRC-1, conc 2.5): 17.7402% | % inhibition Apo pol 10' (DRC-1, conc 5): 14.3% | % inhibition Apo pol 10' (DRC-1, conc 10): 59.9515% | % inhibition Apo pol 10' (DRC-1, conc 20): 87.9776% | % inhibition Apo pol 10' (DRC-1, conc 40): 95.4401% | % inhibition Apo pol 10' (DRC-1, conc 80): 98.3006% | % inhibition Apol 90' (DRC-1, conc 2.5): 16.0319% | % inhibition Apol 90' (DRC-1, conc 5): 10.3916% | % inhibition Apol 90' (DRC-1, conc 10): 57.1077% | % inhibition Apol 90' (DRC-1, conc 20): 85.3091% | % inhibition Apol 90' (DRC-1, conc 40): 92.0772% | % inhibition Apol 90' (DRC-1, conc 80): 96.0616% | % inhibition apPOL 180' (DRC-1, conc 2.5): 7.151% | % inhibition apPOL 180' (DRC-1, conc 5): 1.596% | % inhibition apPOL 180' (DRC-1, conc 10): 45.1863% | % inhibition apPOL 180' (DRC-1, conc 20): 80.2247% | % inhibition apPOL 180' (DRC-1, conc 40): 89.0926% | % inhibition apPOL 180' (DRC-1, conc 80): 94.6304% | % inhibition Apo pol 5' (DRC-2, conc 2.5): 29% | % inhibition Apo pol 5' (DRC-2, conc 5): 42% | % inhibition Apo pol 5' (DRC-2, conc 10): 44% | % inhibition Apo pol 5' (DRC-2, conc 20): 58% | % inhibition Apo pol 5' (DRC-2, conc 40): 67% | % inhibition Apo pol 5' (DRC-2, conc 80): 68% | % inhibition Apo pol 5' (DRC-2, concentration 80): 68% | % inhibition Apol 40' (DRC-2, conc 2.5): 32% | % inhibition Apol 40' (DRC-2, conc 5): 49% | % inhibition Apol 40' (DRC-2, conc 10): 50% | % inhibition Apol 40' (DRC-2, conc 20): 68% | % inhibition Apol 40' (DRC-2, conc 40): 78% | % inhibition Apol 40' (DRC-2, conc 80): 81% | % inhibition Apol 40' (DRC-2, concentration 5): 49% | % inhibition Apol 40' (DRC-2, concentration 20): 68% | % inhibition ApPOL 90' (DRC-2, conc 2.5): 31% | % inhibition ApPOL 90' (DRC-2, conc 5): 49% | % inhibition ApPOL 90' (DRC-2, conc 10): 49% | % inhibition ApPOL 90' (DRC-2, conc 20): 69% | % inhibition ApPOL 90' (DRC-2, conc 40): 80% | % inhibition ApPOL 90' (DRC-2, conc 80): 84% | % inhibition ApPOL 90' (DRC-2, concentration 5): 49% | % inhibition ApPOL 90' (DRC-2, concentration 10): 49% | % inhibition ApPOL 90' (DRC-2, concentration 40): 80% | % inhibition apPOL 180' (DRC-2, conc 2.5): 25% | % inhibition apPOL 180' (DRC-2, conc 5): 40% | % inhibition apPOL 180' (DRC-2, conc 10): 41% | % inhibition apPOL 180' (DRC-2, conc 20): 66% | % inhibition apPOL 180' (DRC-2, conc 40): 80% | % inhibition apPOL 180' (DRC-2, conc 80): 86% | % inhibition apPOL 180' (DRC-2, concentration 40): 80% | DNA Pol (primary screen value, "DNA Pol"): 67
